Data from paper PMC2848589, “Raltegravir Is a Potent Inhibitor of XMRV, a Virus Implicated in Prostate Cancer and Chronic Fatigue Syndrome” (PLoS ONE, 2010).
pEC50: −log10 of the molar value. Where two headings read alike, the source gives them in different places.

Columns and labels:
[1] = test system: XMRV; assay: XMRV replication in MCF-7 cells (viral release by RT activity in supernatant); assay type: cell-based; conditions: for pEC50 / EC90: MCF7, 144 h; for pEC50: read-out: XMRV in MCF-7 cells EC50; for EC90: read-out: XMRV in MCF-7 cells EC90; for activity against XMRV (in words): tested up to 100 µM, Figure 1
[2] = Cytotoxicity in PBM cells; assay type: cell-based; conditions: human, read-out: HIV-1 in PBM cells CC50
Protocol: (§1) Each well was carefully monitored for signs of cellular toxicity due to the inhibitors by microscopic observation every 24 h. In addition, cell viability was measured using the CellTiter 96 AQueous One Solution cell proliferation assay according to the manufacturer (Promega, Madison, Wis). Viral release from the cells was assayed by measuring RT activity in the supernatant. For this, supernatant from each well was collected every 24 h and frozen at −20°C until it was analyzed by RT assay for viral release as described previously. In brief, oligo(dT)·poly(rA) primer-template assays were performed in the presence of radiolabeled [α-^32P]dTTP and Mn^2+. After incubating the viral supernatants with the RT reaction mix for 1 h at 37°C, samples were spotted onto DE81 DEAE cellulose paper (Whatman) and unincorporated label washed away with 2× SSC (1× SSC = 0.15 M NaCl and 0.015 M sodium citrate). […] Inhibition of viral release as measured on day 6 after inoculation was averaged over 3–5 experiments and plotted. The antiviral EC50 and cytotoxic concentrations (CC50,) was determined from the concentration–response curve using the median effect method. HIV-1 replication assays were performed as described previously using peripheral blood mononuclear cells (PBMC) obtained from the American Red Cross, Atlanta, GA, that were stimulated with phytohemagglutinin (PHA) for 72 hr.

[3] = Cytotoxicity in MCF-7 cells (MTT / CellTiter 96 AQueous One); assay type: cell-based, human; conditions: human
Protocol: (§2) We tested a total of 45 compounds belonging to different classes of HIV-1 inhibitors, and a few inhibitors of viruses other than retroviruses, for their ability to inhibit XMRV replication in cultured cells. LNCaP and MCF-7 cells were chosen for their ability to support robust in vitro replication of XMRV. […] To determine if a reduction in viral release might be due to toxicity of the compound and not due to specific antiretroviral activity, cellular morphology was monitored every 24 h by microscopic examination, and an MTT [3-(4,5-dimethylthiazol-2-yl)-2,5-diphenyltetrazolium bromide] colorimetric assay was used to measure potential cytotoxicity produced by the compounds. Supernatants were collected every 24 h and assayed for viral release by measuring RT activity. […] For comparison purposes, all compounds evaluated in these studies were also tested against HIV-1LAI in primary human lymphocytes.
as §1

[4] = test system: HIV-1LAI; assay: HIV-1 replication in PHA-stimulated peripheral blood mononuclear cells; assay type: cell-based; conditions: Human immunodeficiency virus 1, PBMC; for pEC50: read-out: HIV-1 in PBM cells EC50; for EC90: read-out: HIV-1 in PBM cells EC90
Protocol: as §2, §1

[5] = peripheral blood mononuclear (PBM) cells
[6] = MCF-7 cells, read-out: XMRV in MCF-7 cells CC50
[7] = XMRV-infected MCF-7 cells, RT activity in supernatant, day 6

O=c1[nH]c(=O)n([C@H]2C[C@H](O)[C@@H](CO)O2)cc1I [5-Iodo-2'-deoxyuridine (IdUrd), 5-Iodo-2'-deoxyuridine]
pEC50 [1]: 5.66 | EC90 [1]: > 100 µM | therapeutic index (TI, the ratio of CC50/EC50) ([1]; XMRV, MCF-7 cells): low | CC50 [2, 5]: 85.1 µM | CC50 [3]: 7.3 µM | pEC50 [4]: 4.60 | EC90 [4]: 38900 nM

Nc1nc(NC2CC2)c2ncn([C@H]3C=C[C@@H](CO)C3)c2n1 [Abacavir]
pEC50 [1]: < 4.00 | EC90 [1]: > 100 µM | CC50 [2, 5]: 92.9 µM | CC50 [3, 6]: 92.6 µM | pEC50 [4]: 6.77 | EC90 [4]: 1700 nM

Nc1nc2c(ncn2COCCO)c(=O)[nH]1 [Acyclovir (ACV), Acyclovir]
pEC50 [1]: < 4.00 | EC90 [1]: > 100 µM | CC50 [2, 5]: > 100 µM | CC50 [3]: 77.6 µM | pEC50 [4]: < 4.00 | EC90 [4]: > 100000 nM

Nc1nc(N)c2ncn([C@H]3CO[C@@H](CO)O3)c2n1 [Amdoxovir (DAPD, AMDX), Amdoxovir]
pEC50 [1]: < 4.00 | EC90 [1]: > 100 µM | activity against XMRV (in words) [1]: essentially inactive | CC50 [2, 5]: > 100 µM | CC50 [3, 6]: > 100 µM | pEC50 [4]: 6.08 | EC90 [4]: 4800 nM

CC(C)CN(C[C@@H](O)[C@H](Cc1ccccc1)NC(=O)O[C@H]1CCOC1)S(=O)(=O)c1ccc(N)cc1 [Amprenavir]
EC90 [1]: > 100 µM | pEC50 [1, 7]: 4.17 | CC50 [2, 5]: > 100 µM | CC50 [3, 6]: 94.1 µM | pEC50 [4]: 7.57 | EC90 [4]: 100 nM

CC(=O)Oc1ccccc1C(=O)O [Aspirin]
pEC50 [1]: < 4.00 | EC90 [1]: > 100 µM | CC50 [2, 5]: > 100 µM | CC50 [3, 6]: 92.2 µM | pEC50 [4]: < 4.00 | EC90 [4]: > 100000 nM

COC(=O)N[C@H](C(=O)N[C@@H](Cc1ccccc1)[C@@H](O)CN(Cc1ccc(-c2ccccn2)cc1)NC(=O)[C@@H](NC(=O)OC)C(C)(C)C)C(C)(C)C [Atazanavir]
EC90 [1]: > 100 µM | pEC50 [1, 7]: 4.19 | CC50 [2, 5]: 27.2 µM | CC50 [3, 6]: 40.7 µM | pEC50 [4]: 8.17 | EC90 [4]: 22 nM

CC(O)(CS(=O)(=O)c1ccc(F)cc1)C(=O)Nc1ccc(C#N)c(C(F)(F)F)c1 (stereo not drawn) [Bicalutamide]
pEC50 [1]: 4.28 | EC90 [1]: 63.2 µM | CC50 [3]: 8.2 µM

CCN(CC)CCCC(C)Nc1ccnc2cc(Cl)ccc12 (stereo not drawn) [Chloroquine]
pEC50 [1]: 4.24 | EC90 [1]: > 100 µM | pEC50 [4]: 5.05 | EC90 [4]: 21600 nM

CC(C)CN(C[C@@H](O)[C@H](Cc1ccccc1)NC(=O)O[C@H]1CO[C@H]2OCC[C@H]21)S(=O)(=O)c1ccc(N)cc1 [Darunavir]
pEC50 [1]: < 4.00 | EC90 [1]: > 100 µM | activity against XMRV (in words) [1]: essentially ineffective | pEC50 [4]: 8.44 | EC90 [4]: 6.5 nM

C[C@]12CC[C@H](O)CC1=CC[C@@H]1[C@@H]2CC[C@]2(C)C(=O)CC[C@@H]12 [Dehydroepiandrosterone (DHEA), Dehydroepiandrosterone]
pEC50 [1]: 4.16 | EC90 [1]: > 100 µM | CC50 [2]: > 100 µM | CC50 [3, 6]: 64.1 µM | pEC50 [4]: 4.82 | EC90 [4]: 71200 nM

O=C1Nc2ccc(Cl)cc2[C@@](C#CC2CC2)(C(F)(F)F)O1 [Efavirenz]
pEC50 [1]: 4.29 | EC90 [1]: 93 µM | activity against XMRV (in words) [1]: did not demonstrate any major activity | CC50 [2, 5]: 18.4 µM | CC50 [3, 6]: 60.4 µM | pEC50 [4]: 9.14 | EC90 [4]: 2.7 nM

Nc1nc(=O)n([C@@H]2CS[C@H](CO)O2)cc1F [Emtricitabine [(-)-FTC], Emtricitabine]
pEC50 [1]: < 4.00 | EC90 [1]: > 100 µM | activity against XMRV (in words) [1]: essentially inactive | CC50 [2, 5]: > 100 µM | CC50 [3]: > 100 µM | pEC50 [4]: 8.18 | EC90 [4]: 52 nM

C=C1[C@H](CO)[C@@H](O)C[C@@H]1n1cnc2c(=O)[nH]c(N)nc21 [Entecavir (ETV), Entecavir]
pEC50 [1]: < 4.00 | EC90 [1]: > 100 µM | CC50 [2, 5]: 25.2 µM | CC50 [3]: 93.3 µM | pEC50 [4]: 5.68 | EC90 [4]: 16300 nM

O=C(O)P(=O)(O)O [Foscarnet (PFA), Foscarnet]
pEC50 [1]: 4.38 | EC90 [1]: > 100 µM | CC50 [2, 5]: > 100 µM | CC50 [3, 6]: > 100 µM | pEC50 [4]: 4.57 | EC90 [4]: 71900 nM

Nc1nc(O)c2ncn(COC(CO)CO)c2n1 [Ganciclovir (GCV), Ganciclovir]
pEC50 [1]: < 4.00 | EC90 [1]: > 100 µM | CC50 [2, 5]: > 100 µM | CC50 [3]: > 100 µM | pEC50 [4]: < 4.00 | EC90 [4]: > 100000 nM

CC(C)(C)NC(=O)[C@@H]1CN(Cc2cccnc2)CCN1C[C@@H](O)C[C@@H](Cc1ccccc1)C(=O)N[C@H]1c2ccccc2C[C@H]1O [Indinavir]
pEC50 [1]: < 4.00 | EC90 [1]: > 100 µM | activity against XMRV (in words) [1]: essentially ineffective | CC50 [2, 5]: > 100 µM | CC50 [3]: 69.9 µM | pEC50 [4]: 7.74 | EC90 [4]: 64 nM

Nc1ccn([C@@H]2CS[C@H](CO)O2)c(=O)n1 [Lamivudine (3TC), Lamivudine]
pEC50 [1]: < 4.00 | EC90 [1]: > 100 µM | activity against XMRV (in words) [1]: essentially inactive | CC50 [2, 5]: 41.9 µM | CC50 [3]: > 100 µM | pEC50 [4]: 7.07 | EC90 [4]: 360 nM

Cc1cccc(C)c1OCC(=O)N[C@@H](Cc1ccccc1)[C@@H](O)C[C@H](Cc1ccccc1)NC(=O)[C@H](C(C)C)N1CCCNC1=O [Lopinavir]
EC90 [1]: > 100 µM | pEC50 [1, 7]: 4.14 | CC50 [2, 5]: 36 µM | CC50 [3]: 8.5 µM | pEC50 [4]: 7.96 | EC90 [4]: 29 nM

CN(C)c1ccc2nc3ccc(=[N+](C)C)cc-3sc2c1 [Methylene blue]
pEC50 [1]: 6.38 | EC90 [1]: 2.7 µM | CC50 [2, 5]: 6.1 µM | CC50 [3]: 7.2 µM | pEC50 [4]: 7.62 | EC90 [4]: 500 nM

Cc1c(O)cccc1C(=O)N[C@@H](CSc1ccccc1)[C@H](O)CN1C[C@H]2CCCC[C@H]2C[C@H]1C(=O)NC(C)(C)C [Nelfinavir]
EC90 [1]: > 100 µM | pEC50 [1, 7]: 4.46 | CC50 [2, 5]: 73.8 µM | CC50 [3]: 7.4 µM | pEC50 [4]: 7.74 | EC90 [4]: 67 nM

Nc1nc2c(ncn2CCC(CO)CO)c(=O)[nH]1 [Penciclovir (PCV), Penciclovir]
pEC50 [1]: < 4.00 | EC90 [1]: > 100 µM | CC50 [2, 5]: > 100 µM | CC50 [3]: 98.1 µM | pEC50 [4]: < 4.00 | EC90 [4]: > 100000 nM

NC(=O)c1ncn([C@@H]2O[C@H](CO)[C@@H](O)[C@H]2O)n1 [Ribavirin (RBV), Ribavirin]
pEC50 [1]: 4.28 | EC90 [1]: > 100 µM | CC50 [2, 5]: > 100 µM | CC50 [3]: 74.1 µM | pEC50 [4]: 5.19 | EC90 [4]: > 100000 nM

CC(C)c1nc(CN(C)C(=O)N[C@H](C(=O)N[C@@H](Cc2ccccc2)C[C@H](O)[C@H](Cc2ccccc2)NC(=O)OCc2cncs2)C(C)C)cs1 [Ritonavir]
EC90 [1]: > 100 µM | pEC50 [1, 7]: 4.12 | pEC50 [4]: 6.82 | EC90 [4]: 400 nM

CC(C)(C)NC(=O)[C@@H]1C[C@@H]2CCCC[C@@H]2CN1C[C@@H](O)[C@H](Cc1ccccc1)NC(=O)[C@H](CC(N)=O)NC(=O)c1ccc2ccccc2n1 [Saquinavir]
pEC50 [1]: < 4.00 | EC90 [1]: > 100 µM | activity against XMRV (in words) [1]: essentially ineffective | CC50 [2, 5]: 26.7 µM | CC50 [3]: 53.7 µM | pEC50 [4]: 8.19 | EC90 [4]: 21 nM

CC(C)=CCN1Cc2c(Cl)ccc3[nH]c(=S)n(c23)C[C@@H]1C [TIBO analog, (4S)-8-Chloro-4-methyl-5-(3-methylbut-2-enyl)-3,4,5,6-tetrahydro-1H-[1], [3]diazepino[4,5,6-cd]indole-2(2aH)-thione]
activity against XMRV (in words) [1]: did not demonstrate any major activity
